# Patent publication US20230338609A1, “MEDICAL DEVICES AND MATERIALS COMPRISING BIODEGRADABLE POLYESTERS” (AMICOAT AS, priority 2020, published 2023)
# Tests used:
# [1] = system: E. coli; conditions: Table 5
# [2] = system: C. albicans; conditions: Table 5
# [3] = system: Staphylococcus aureus, strain ATCC 25923; conditions: ATCC 25923
# [4] = system: P. aeruginosa; conditions: Table 5
# [5] = system: S. pyogenes; conditions: Table 5
# [6] = system: Trichophyton mentagrophytes - G.R. Micro collection; assay type: cell-based
# Experimental: (§1) Yeast and filamentous fungal MIC were performed in MOPS buffered RPMI 1640 medium (MOPS buffer obtained from Sigma Aldrich Ltd., RPMI 1640 obtained from Invitrogen Ltd, Paisley, Scotland). The yeast inocula were in the range 7.5×10^2-4×10^3 CFU/mL and the filamentous fungi approximately 8×10^3-1×10^5 CFU/mL
# [7] = system: Candida tropicalis ATCC750 - reference strain; assay type: cell-based
# Experimental: as §1
# [8] = system: Cryptococcus neoformans - G.R. Micro collection; assay type: cell-based
# Experimental: as §1
# [9] = system: Candida (Issatchenkia) krusei ATCC6258 - reference strain; assay type: cell-based
# Experimental: as §1
# [10] = system: Streptococcus agalactiae - antibiotic-susceptible clinical isolate; assay type: cell-based
# Excerpt: (§2) Cation-adjusted Mueller-Hinton broth (Oxoid Ltd., Basingstoke, UK and Trek Diagnostic Systems Ltd., East Grinstead, UK) (supplemented with 5% laked horse blood for Streptococcus spp., Corynebacterium jeikeium and Listeria monocytogenes) was used for aerobic bacteria, with an initial inoculum of approximately 10^5 colony-forming units (CFU)/mL.
# [11] = system: EMRSA15 Staphylococcus aureus (MRSA) - SSCmec type 4; assay type: cell-based; conditions: EMRSA15 - SSCmec type 4
# Excerpt: as §2
# [12] = system: Staphylococcus epidermidis methicillin-resistant clinical isolate; assay type: cell-based
# Excerpt: as §2
# [13] = system: Enterococcus gallinarum vancomycin-resistant (VanC) clinical isolate; assay type: cell-based
# Excerpt: as §2
# [14] = system: Staphylococcus haemolyticus - antibiotic susceptible clinical isolate; assay type: cell-based
# Excerpt: as §2
# [15] = system: Moraxella catarrhalis - β -lactamase positive clinical isolate; assay type: cell-based
# Excerpt: as §2
# [16] = system: HT2001254 Staphylococcus aureus (MRSA) - PVL positive; assay type: cell-based
# Excerpt: as §2
# [17] = system: Moraxella catarrhalis - reduced fluoroquinolone susceptibility clinical isolate; assay type: cell-based
# Excerpt: as §2
# [18] = system: Corynebacterium jeikeium - antibiotic-susceptible clinical isolate; assay type: cell-based
# Excerpt: as §2
# [19] = system: Corynebacterium jeikeium - multi-drug resistant clinical isolate; assay type: cell-based
# Excerpt: as §2
# [20] = system: Staphylococcus epidermidis antibiotic susceptible clinical isolate; assay type: cell-based
# Excerpt: as §2
# [21] = system: Staphylococcus saprophyticus - antibiotic susceptible clinical isolate; assay type: cell-based
# Excerpt: as §2
# [22] = system: Staphylococcus aureus ATCC 29213 - antibiotic-susceptible control strain; assay type: cell-based
# Excerpt: as §2
# [23] = system: Staphylococcus aureus ATCC 43300 - methicillin-resistant control strain; assay type: cell-based
# Excerpt: as §2
# [24] = system: Pseudomonas aeruginosa - multi-drug resistant clinical isolate; assay type: cell-based
# Excerpt: as §2
# [25] = system: Staphylococcus aureus - methicillin-resistant clinical isolate; assay type: cell-based
# Excerpt: as §2
# [26] = system: EMRSA3 Staphylococcus aureus (MRSA) - SSCmec type 1; assay type: cell-based; conditions: EMRSA3 - SSCmec type 1
# Excerpt: as §2
# [27] = system: Streptococcus bovis - macrolide-resistant clinical isolate; assay type: cell-based
# Excerpt: as §2
# [28] = system: Staphylococcus aureus ATCC 25923 - antibiotic-susceptible control strain; assay type: cell-based
# Excerpt: as §2
# [29] = system: Streptococcus pyogenes CS301; experiment: Murine skin infection model, topical treatment; assay type: in vivo; conditions: mice
# Experimental: (§3) The skin of mice was infected with Staphylococcus aureus or Streptococcus pyogenes and subsequently given a total of three treatments at three hourly intervals. Three hours after the last treatment, skin biopsies were collected and the number of colony forming units (CFUs) present in the skin sample was determined. Results are shown in FIGS. 1 and 2, expressed as the number of colony forming units per mouse.
# as §3, with “3, 4” for “1”, “5” for “2,”
# [30] = system: Staphylococcus aureus FDA486; experiment: Murine skin infection model, topical treatment; assay type: in vivo; conditions: mice; cream or gel containing 2% (w/w); three treatments at three hourly intervals; biopsy three hours after last
# Experimental: as §3
# as §3, with “3, 4” for “1”, “5” for “2,”
# [31] = system: Methicillin resistant Staphylococcus epidermidis (MRSE) strain ATCC 27626; conditions: ATCC 27626
# [32] = system: Methicillin resistant Staphylococcus aureus (MRSA) strain ATCC 33591; conditions: ATCC 33591
smiles,measurement,setting,value
CC(C)NC(=O)[C@H](CCCNC(=N)N)NC(=O)[C@H](Cc1c(C(C)(C)C)[nH]c2c(C(C)(C)C)cc(C(C)(C)C)cc12)NC(=O)[C@@H](N)CCCNC(=N)N [Compound 7],E. coli (MIC),[1],7 µg/mL
same,C. albicans (MIC),[2],25 µg/mL
same,S. aureus (MIC),[3],<2 µg/mL
same,P. aeruginosa (MIC),[4],7 µg/mL
same,S. pyogenes (MIC),[5],<2 µg/mL
same,MIC,[6],8 µg/mL
same,MIC,[7],4 µg/mL
same,MIC,[8],8 µg/mL
same,MIC,[9],8 µg/mL
same,MIC,[10],8 µg/mL
same,MIC,[11],8 µg/mL
same,MIC,[12],4 µg/mL
same,MIC,[13],8 µg/mL
same,MIC,[14],4 µg/mL
same,MIC,[15],4 µg/mL
same,MIC,[16],8 µg/mL
same,MIC,[17],8 µg/mL
same,MIC,[18],8 µg/mL
same,MIC,[19],8 µg/mL
same,MIC,[20],4 µg/mL
same,MIC,[21],2 µg/mL
same,MIC,[22],8 µg/mL
same,MIC,[23],8 µg/mL
same,MIC,[24],8 µg/mL
same,MIC,[25],8 µg/mL
same,MIC,[26],8 µg/mL
same,MIC,[27],8 µg/mL
same,MIC,[28],8 µg/mL
same,number of CFUs in skin biopsy vs placebo gel and bactroban,"[29]; 1% or 2% gel, three treatments at three hourly intervals",more effective at reducing the number of CFUs from a Streptococcus pyogenes CS 301 infection than the placebo gel or the bactroban
same,"number of CFUs in skin biopsy, 2% gel compared with 1% gel",[29]; 2% gel vs 1% gel,more effective than the gel containing only 1% of compound 7
same,number of CFUs in skin biopsy vs placebo,[30],the number of CFUs was reduced
same,MRSE (MIC),[31],<2 µg/mL
same,MRSA (MIC),[32],<2 µg/mL
